Experimental data from patent US7691867B2, “Chemical compounds” (AstraZeneca AB, priority 2003, dated 2010).
pIC50: −log10 of the molar value.

Legend:
Aurora-B kinase = Aurora-B kinase (Homo sapiens, UniProt Q96GD4); assay: In vitro Aurora-B kinase inhibition test; format: biochemical; details: recombinant Aurora-B, peptide substrate, [γ33P]ATP, 60 minutes at room temperature; read-out: 50% inhibition of enzyme activity at a concentration of
Method: (b) In Vitro Aurora-B Kinase Inhibition Test
This assay determines the ability of a test compound to inhibit serine-threonine kinase activity. DNA encoding Aurora-B may be obtained by total gene synthesis or by cloning. This DNA may then be expressed in a suitable expression system to obtain polypeptide with serine-threonine kinase activity.
For the large scale expression of Aurora-B kinase activity, Sf21 insect cells were grown at 28° C. in TC100 medium supplemented with 10% foetal calf serum (Viralex) and 0.2% F68 Pluronic (Sigma) on a Wheaton roller rig at 3 r.p.m. When the cell density reached 1.2×10^6 cells ml^−1 they were infected with plaque-pure Aurora-B recombinant virus at a multiplicity of infection of 1 and harvested 48 hours later. All subsequent purification steps were performed at 4° C. Frozen insect cell pellets containing a total of 2.0×10^8 cells were thawed and diluted with lysis buffer (50 mM HEPES (N-[2-hydroxyethyl]piperazine-N′-[2-ethanesulphonic acid]) pH 7.5 at 4° C., 1 mM Na3VO4, 1 mM PMSF (phenylmethylsulphonyl fluoride), 1 mM dithiothreitol, 1 μg/ml aprotinin, 1 μg/ml pepstatin, 1 μg/ml leupeptin), using 1.0 ml per 2×10^7 cells. Lysis was achieved using a sonication homogeniser, following which the lysate was centrifuged at 41,000 g for 35 minutes. Aspirated supernatant was pumped onto a 5 mm diameter chromatography column containing 1.0 ml CM sepharose Fast Flow (Amersham Pharmacia Biotech) which had been equilibrated in lysis buffer. A baseline level of UV absorbance for the eluent was reached after washing the column with 12 ml of lysis buffer followed by 7 ml of wash buffer (50 mM HEPES pH 7.4 at 4° C., 1 mM dithiothreitol). Bound Aurora-B B protein was eluted from the column using a gradient of elution buffer (50 mM HEPES pH 7.4 at 4° C., 0.6 M NaCl, 1 mM dithiothreitol, running from 0% elution buffer to 100% elution buffer over 15 minutes at a flowrate of 0.5 ml/min). Elution fractions (1.0 ml) corresponding to the peak in UV absorbance was collected. […]

SW620 cells = assay: In vitro cell cycle analysis assay; format: cell-based; details: Homo sapiens, SW-620, 24 hours with compound, DNA content by FACS, read-out: 50% inhibition of enzyme activity at a concentration of
Method: (d) In Vitro Cell Cycle Analysis Assay
This assay determines the ability of a test compound to arrest cells in specific phases of the cell cycle. Many different mammalian cell lines could be used in this assay and SW620 cells are included here as an example. SW620 cells were seeded at 7×10^5 cells per T25 flask (Costar) in 5 ml L-15 (5% FCS, 1% L-glutamine). Flasks were then incubated overnight in a humidified 37° C. incubator with 5% CO2. The following day, 5 μl of L-15 (5% FCS, 1% L-glutamine) carrying the appropriate concentration of test compound solubilised in DMSO was added to the flask. A no compound control treatment was also included (0.5% DMSO). The cells were then incubated for a defined time (24 hours) with compound. After this time the media was aspirated from the cells and they were washed with 5 ml of prewarmed (37° C.) sterile PBSA, then detached from the flask by brief incubation with trypsin and followed by resuspension in 5 ml of 1% Bovine Serum Albumin (BSA, Sigma-Aldrich Co.) in sterile PBSA. The samples were then centrifuged at 2200 rpm for 10 min. The supernatant was aspirated to leave 200 μl of the PBS/BSA solution. The pellet was resuspended in this 200 μl of solution by pipetting 10 times to create a single cell suspension. One ml of ice-cold 80% ethanol was slowly added to each cell suspension and the samples stored at −20° C. overnight or until required for staining. […]
Each sample was then syringed 10 times using 21-guage needle. The samples were then transferred to LPS tubes and DNA content per cell analysed by Fluorescence activated cell sorting (FACS) using a FACScan flow cytometer (Becton Dickinson). Typically 30,000 events were counted and recorded using CellQuest v1.1 software (Verity Software). Cell cycle distribution of the population was calculated using Modfit software (Verity Software) and expressed as percentage of cells with 2N (G0/G1), 2N4N (S phase) and with 4N (G2/M) DNA content.

Aurora-A kinase = biological target: T1, Aurora-A kinase (Homo sapiens, UniProt O14965); assay: In vitro Aurora-A kinase inhibition test; format: biochemical
T1 sequence (O14965 1-403): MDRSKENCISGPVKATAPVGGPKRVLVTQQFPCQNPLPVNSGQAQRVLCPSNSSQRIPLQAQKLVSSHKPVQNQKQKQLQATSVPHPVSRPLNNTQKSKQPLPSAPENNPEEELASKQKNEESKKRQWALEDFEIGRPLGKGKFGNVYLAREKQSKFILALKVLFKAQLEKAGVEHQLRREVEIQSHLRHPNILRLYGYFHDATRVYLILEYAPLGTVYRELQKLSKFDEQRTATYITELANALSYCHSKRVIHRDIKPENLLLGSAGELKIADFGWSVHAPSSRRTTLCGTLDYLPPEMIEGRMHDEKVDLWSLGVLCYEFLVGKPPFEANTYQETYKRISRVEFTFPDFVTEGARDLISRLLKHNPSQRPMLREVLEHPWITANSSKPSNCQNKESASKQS

[1] = system: human tumour cell line SW620; assay: In vitro cell proliferation assay (BrdU incorporation); format: cell-based; details: SW-620, SW620 cells, 48 hours with compound, BrdU incorporation over 2 hour labelling period, read-out: 50% inhibition of enzyme activity at a concentration of
Description: (c) In Vitro cell Proliferation Assay
This and other assays can be used to determine the ability of a test compound to inhibit the growth of adherent mammalian cell lines, for example the human tumour cell line SW620 (ATCC CCL-227). This assay determines the ability of at test compound to inhibit the incorporation of the thymidine analogue, 5′-bromo-2′-deoxy-uridine (BrdU) into cellular DNA. SW620 or other adherent cells were typically seeded at 1×10^5 cells per well in L-15 media (GIBCO) plus 5% foetal calf serum, 1% L-glutamine (100 μl /well) in 96 well tissue culture treated 96 well plates (Costar) and allowed to adhere overnight. The following day the cells were dosed with compound (diluted from 10 mM stock in DMSO using L-15 (with 5% FCS, 1% L-glutamine). Untreated control wells and wells containing a compound known to give 100% inhibition of BrdU incorporation were included on each plate. After 48 hours in the presence/absence of test compound the ability of the cells to incorporate BrdU over a 2 hour labelling period was determined using a Boehringer (Roche) Cell Proliferation BrdU EUSA kit (cat. No. 1 647 229) according to manufacturers directions. Briefly, 15 μl of BrdU labelling reagent (diluted 1:100 in media—L-15, 5% FCS, 1% L-glutamine) was added to each well and the plate returned to a humidified (+5% CO2) 37° C. incubator for 2 hours. After 2 hours the labelling reagent was removed by decanting and tapping the plate on a paper towel. FixDenat solution (50 μl per well) was added and the plates incubated at room temperature for 45 mins with shaking. The FixDenat solution was removed by decanting and tapping the inverted plate on a paper towel. The plate was then washed once with phosphate buffered saline (PBS) and 100 μl/well of Anti-BrdU-POD antibody solution (diluted 1:100 in antibody dilution buffer) added. The plate was then incubated at room temperature with shaking for 90 min. […] The optical density of the wells was then determined at 690 nm wavelength using a Titertek Multiscan plate reader. […]

Chain of Aurora-B kinase (Q96GD4 whole entry): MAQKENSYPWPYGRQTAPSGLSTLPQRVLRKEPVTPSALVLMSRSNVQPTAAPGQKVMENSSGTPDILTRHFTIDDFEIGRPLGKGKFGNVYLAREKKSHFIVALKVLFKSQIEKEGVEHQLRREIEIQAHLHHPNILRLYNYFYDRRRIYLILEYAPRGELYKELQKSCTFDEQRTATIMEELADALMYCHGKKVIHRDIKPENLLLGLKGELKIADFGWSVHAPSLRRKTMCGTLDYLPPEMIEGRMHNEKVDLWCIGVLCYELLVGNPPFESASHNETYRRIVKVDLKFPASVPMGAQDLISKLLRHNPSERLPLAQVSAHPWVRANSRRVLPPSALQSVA

With `COc1cc2c(Nc3cnn(CC(=O)Nc4cccc(F)c4)c3)ncnc2cc1OCCCN1CCC[C@@H]1CO` [Compound 27, N-(3-fluorophenyl)-2-{4-[(7-{3-[(2R)-2-(hydroxymethyl)pyrrolidin-1-yl]propoxy}-6-methoxyquinazolin-4-yl)amino]-1H-pyrazol-1-yl}acetamide] the pIC50 (Aurora-B kinase) was 8.30, the pIC50 (SW620 cells) was 8.15 and the pIC50 (Aurora-A kinase) was 7.47. For the same compound, the pIC50 [1] was 8.00.
In the case of `COc1cc2c(Nc3cnn(CC(=O)Nc4cccc(F)c4F)c3)ncnc2cc1OCCCN(CCO)CC(C)C` [Compound 60, N-(2,3-difluorophenyl)-2-{4-[(7-{3-[(2-hydroxyethyl)(isobutyl)amino]propoxy}-6-methoxyquinazolin-4-yl)amino]-1H-pyrazol-1-yl}acetamide], the pIC50 (Aurora-B kinase) was 8.10, the pIC50 (SW620 cells) was 8.52 and the pIC50 (Aurora-A kinase) was 8.00. For the same compound, the pIC50 [1] was 9.00.
In the case of `CCN(CCO)CCCOc1ccc2c(Nc3cnn(CC(=O)Nc4cccc(F)c4)c3)ncnc2c1` [Compound 187, 2-{4-[(7-{3-[ethyl(2-hydroxyethyl)amino]propoxy}quinazolin-4-yl)amino]-1H-pyrazol-1-yl}-N-(3-fluorophenyl)acetamide], the pIC50 (Aurora-B kinase) was 8.05, the pIC50 (SW620 cells) was 7.68 and the pIC50 (Aurora-A kinase) was 6.30. It also gave a pIC50 [1] of 9.00.
